Tests used:
[1] = target: T1, LHRH rat pituitary receptor (Rattus norvegicus, UniProt P30969); assay: LHRH rat pituitary receptor binding (in vitro); conditions: method of Haviv et al. J. Med. Chem. 32: 2340-2344 (1989), read-out: pKI (receptor binding affinity; negative logarithm of the equilibrium dissociation constant) (converted)
T1 construct: from tissue; host or cells: rat pituitary
T1 sequence (P30969 1-327): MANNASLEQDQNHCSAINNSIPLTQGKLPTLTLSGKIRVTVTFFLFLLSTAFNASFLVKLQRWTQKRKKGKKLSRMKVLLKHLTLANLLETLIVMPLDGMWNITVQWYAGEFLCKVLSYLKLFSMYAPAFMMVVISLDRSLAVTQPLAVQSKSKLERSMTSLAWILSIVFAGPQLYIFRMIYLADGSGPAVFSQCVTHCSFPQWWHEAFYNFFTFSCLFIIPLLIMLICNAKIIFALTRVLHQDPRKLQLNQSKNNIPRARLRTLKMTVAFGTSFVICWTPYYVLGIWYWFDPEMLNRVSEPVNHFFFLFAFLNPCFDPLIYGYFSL
Experimental: Representative compounds of the present invention were evaluated in in vitro tests for LHRH rat pituitary receptor binding (pKI). The tests employed the methods detailed in F. Haviv, et al. J. Med. Chem., 32: 2340-2344 (1989). The receptor binding affinity (pKI) is the negative logarithms of the equilibrium dissociation constants.

| Compound | Ki [1] [nM] | melting point [°C] |
| --- | --- | --- |
| CCC1CCC(CC)N1[C@H]1C[C@@H](C)O[C@@H](O[C@@H]2[C@@H](C)[C@H](O[C@H]3C[C@@](C)(OC)[C@@H](O)[C@H](C)O3)[C@@H](C)C(=O)O[C@H](CC)[C@@]3(C)OC(=O)N(CCc4ccc(F)c(Cl)c4)[C@@H]3[C@@H](C)C(=O)[C@H](C)C[C@@]2(C)OC)[C@@H]1O (mixture of isomers) [Example 10, 3′-Desamino-3′-N-(2,5-diethylpyrrolidinyl)-11-deoxy-11-[carboxy-(3-chloro-4-fluorophenethylamino)]-6-O-methyl-erythromycin A 11,12-(cyclic carbamate)] | 0.676 | – |
| CC[C@H]1OC(=O)[C@H](C)[C@@H](O[C@H]2C[C@@](C)(OC)[C@@H](O)[C@H](C)O2)[C@H](C)[C@@H](O[C@@H]2O[C@H](C)C[C@H](N3C(C)CCC3C)[C@H]2O)[C@](C)(OC)C[C@@H](C)C(=O)[C@H](C)[C@H]2N(CCc3ccc(Cl)c(Cl)c3)C(=O)O[C@]12C (single isomer, unassigned) [Example 5, 3′-Desamino-3′S-N-(2,5-dimethylpyrrolidinyl)-11-deoxy-11-[carboxy-(3,4-dichlorophenethylamino)]-6-O-methyl-erythromycin A 11,12-(cyclic carbamate)] | 1.23 | 258 to 260 |
| CC[C@H]1OC(=O)[C@H](C)[C@@H](O[C@H]2C[C@@](C)(OC)[C@@H](O)[C@H](C)O2)[C@H](C)[C@@H](O[C@@H]2O[C@H](C)C[C@H](N3C(C)CCC3C)[C@H]2O)[C@](C)(OC)C[C@@H](C)C(=O)[C@H](C)[C@H]2N(CCc3ccc(F)c(Cl)c3)C(=O)O[C@]12C (single isomer, unassigned) [Example 6, 3′-Desamino-3′-N-(2,5-dimethylpyrrolidinyl)-11-deoxy-11-[carboxy-(3-chloro-4-fluorophenethylamino)]-6-O-methyl-erythromycin A 11,12-(cyclic carbamate)] | 0.759 | 276 to 278 |
| CC[C@H]1OC(=O)[C@H](C)[C@@H](O[C@H]2C[C@@](C)(OC)[C@@H](O)[C@H](C)O2)[C@H](C)[C@@H](O[C@@H]2O[C@H](C)C[C@H](N3C(C)CCCC3C)[C@H]2O)[C@](C)(OC)C[C@@H](C)C(=O)[C@H](C)[C@H]2N(CCc3ccc(Cl)c(Cl)c3)C(=O)O[C@]12C (single isomer, unassigned) [Example 7, 3′-Desamino-3′-N-(2,6-dimethylpiperidinyl)-11-deoxy-11-[carboxy-(3,4-dichlorophenethylamino)]-6-O-methyl-erythromycin A 11,12-(cyclic carbamate)] | 2.57 | – |
| CC[C@H]1OC(=O)[C@H](C)[C@@H](O[C@H]2C[C@@](C)(OC)[C@@H](O)[C@H](C)O2)[C@H](C)[C@@H](O[C@@H]2O[C@H](C)C[C@H](N3C(C)CCCC3C)[C@H]2O)[C@](C)(OC)C[C@@H](C)C(=O)[C@H](C)[C@H]2N(CCc3ccc(F)c(Cl)c3)C(=O)O[C@]12C (single isomer, unassigned) [Example 8, 3′-Desamino-3′-N-(2,6-dimethylpiperidinyl)-11-deoxy-11-[carboxy-(3-chloro-4-fluorophenethylamino)]-6-O-methyl-erythromycin A 11,12-(cyclic carbamate)] | 2.45 | – |
| CC[C@H]1OC(=O)[C@H](C)[C@@H](O[C@H]2C[C@@](C)(OC)[C@@H](O)[C@H](C)O2)[C@H](C)[C@@H](O[C@@H]2O[C@H](C)C[C@H](N3C(C4CC4)CCCC3C3CC3)[C@H]2O)[C@](C)(OC)C[C@@H](C)C(=O)[C@H](C)[C@H]2N(CCc3ccc(F)c(Cl)c3)C(=O)O[C@]12C (stereo partly drawn) [Example 11, 3′-Desamino-3′-N-(2,6-biscyclopropylpiperidinyl)-11-deoxy-11-[carboxy-(3-chloro-4-fluorophenethylamino)]-6-O-methyl-erythromycin A 11,12-(cyclic carbamate)] | 1.17 | – |

Further lines, results first:

| Ki [1] [nM] | melting point [°C] | Compound |
| --- | --- | --- |
| 1.82 | – | CC[C@H]1OC(=O)[C@H](C)[C@@H](O[C@H]2C[C@@](C)(OC)[C@@H](O)[C@H](C)O2)[C@H](C)[C@@H](O[C@@H]2O[C@H](C)C[C@H](N3CCCC3)[C@H]2O)[C@](C)(OC)C[C@@H](C)C(=O)[C@H](C)[C@H]2N(CCc3ccc(Cl)c(Cl)c3)C(=O)O[C@]12C [Example 1, 3′-Desamino-(3′S)-N-pyrrolidinyl-11-deoxy-11-[carboxy-(3,4-dichlorophenethylamino)]-6-O-methyl-erythromycin A 11,12-(cyclic carbamate)] |
| 3.55 | – | CC[C@H]1OC(=O)[C@H](C)[C@@H](O[C@H]2C[C@@](C)(OC)[C@@H](O)[C@H](C)O2)[C@H](C)[C@@H](O[C@@H]2O[C@H](C)C[C@H](N3CCCCC3)[C@H]2O)[C@](C)(OC)C[C@@H](C)C(=O)[C@H](C)[C@H]2N(CCc3ccc(Cl)c(Cl)c3)C(=O)O[C@]12C [Example 3, 3′-Desamino-3′-N-piperidinyl-11-deoxy-11-[carboxy-(3,4-dichlorophenethylamino)]-6-O-methyl-erythromycin A 11,12-(cyclic carbamate)] |
| 5.62 | – | CC[C@H]1OC(=O)[C@H](C)[C@@H](O[C@H]2C[C@@](C)(OC)[C@@H](O)[C@H](C)O2)[C@H](C)[C@@H](O[C@@H]2O[C@H](C)C[C@H](N3CCCCC3)[C@H]2O)[C@](C)(OC)C[C@@H](C)C(=O)[C@H](C)[C@H]2N(CCc3ccc(F)c(Cl)c3)C(=O)O[C@]12C [Example 4, 3′-Desamino-3′-N-piperidinyl-11-deoxy-11-[carboxy-(3-chloro-4-fluorophenethylamino)]-6-O-methyl-erythromycin A 11,12-(cyclic carbamate)] |
| 1.74 | – | CCC1CCC(CC)N1[C@H]1C[C@@H](C)O[C@@H](O[C@@H]2[C@@H](C)[C@H](O[C@H]3C[C@@](C)(OC)[C@@H](O)[C@H](C)O3)[C@@H](C)C(=O)O[C@H](CC)[C@@]3(C)OC(=O)N(CCc4ccc(Cl)c(Cl)c4)[C@@H]3[C@@H](C)C(=O)[C@H](C)C[C@@]2(C)OC)[C@@H]1O (stereo partly drawn) [Example 9, 3′-Desamino-3′-N-(2,5-diethylpyrrolidinyl)-11-deoxy-11-[carboxy-(3,4-dichlorophenethylamino)]-6-O-methyl-erythromycin A 11,12-(cyclic carbamate)] |

Reference: US6387885B1, “3′,3′-N-bis-desmethyl-3′-N-cycloalkyl erythromycin derivatives as LHRH antagonists” (Abbott Laboratories, priority 1998, dated 2002)
